Values joined by “and” are separate entries in the source; they are usually repeats but may differ in a detail not shown here. Equal entries are not always repeated.
Experiments:
PIK3CB = PIK3CB (UniProt P42338); assay: Inhibition of PIK3CB Kinase Assay
PIK3CG (human) = PIK3CG (human) (UniProt P48736); assay: Inhibition of PIK3CG Kinase Assay
Sequence of PIK3CG (human) (P48736 whole entry, looked up): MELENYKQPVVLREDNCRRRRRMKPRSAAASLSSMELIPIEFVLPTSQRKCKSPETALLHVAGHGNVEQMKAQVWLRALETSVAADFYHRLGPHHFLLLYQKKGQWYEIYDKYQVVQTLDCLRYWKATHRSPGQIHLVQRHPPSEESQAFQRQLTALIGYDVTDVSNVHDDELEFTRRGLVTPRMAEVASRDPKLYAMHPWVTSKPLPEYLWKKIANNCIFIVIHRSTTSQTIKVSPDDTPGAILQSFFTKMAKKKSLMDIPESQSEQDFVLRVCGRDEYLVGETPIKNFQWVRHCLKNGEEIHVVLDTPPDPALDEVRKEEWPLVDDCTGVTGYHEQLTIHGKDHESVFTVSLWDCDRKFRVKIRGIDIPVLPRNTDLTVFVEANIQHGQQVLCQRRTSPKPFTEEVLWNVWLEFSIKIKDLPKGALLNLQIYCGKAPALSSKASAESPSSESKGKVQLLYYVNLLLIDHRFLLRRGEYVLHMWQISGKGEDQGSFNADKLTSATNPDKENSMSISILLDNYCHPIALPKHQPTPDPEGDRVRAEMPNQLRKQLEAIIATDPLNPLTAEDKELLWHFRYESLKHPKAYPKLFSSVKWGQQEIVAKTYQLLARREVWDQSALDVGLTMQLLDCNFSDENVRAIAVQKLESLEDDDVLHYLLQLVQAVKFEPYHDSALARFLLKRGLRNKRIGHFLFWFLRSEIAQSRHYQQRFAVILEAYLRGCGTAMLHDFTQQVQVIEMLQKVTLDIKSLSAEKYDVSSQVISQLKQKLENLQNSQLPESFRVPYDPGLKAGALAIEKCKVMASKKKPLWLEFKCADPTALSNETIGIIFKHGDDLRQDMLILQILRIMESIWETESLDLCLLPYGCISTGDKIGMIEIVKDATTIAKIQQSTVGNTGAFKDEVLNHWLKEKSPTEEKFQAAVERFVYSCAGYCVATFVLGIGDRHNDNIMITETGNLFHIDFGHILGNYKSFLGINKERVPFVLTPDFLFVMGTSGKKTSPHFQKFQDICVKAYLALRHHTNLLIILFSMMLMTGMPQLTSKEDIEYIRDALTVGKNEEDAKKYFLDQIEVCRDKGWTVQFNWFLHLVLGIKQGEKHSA

Sequence of PIK3CB (P42338 whole entry, looked up): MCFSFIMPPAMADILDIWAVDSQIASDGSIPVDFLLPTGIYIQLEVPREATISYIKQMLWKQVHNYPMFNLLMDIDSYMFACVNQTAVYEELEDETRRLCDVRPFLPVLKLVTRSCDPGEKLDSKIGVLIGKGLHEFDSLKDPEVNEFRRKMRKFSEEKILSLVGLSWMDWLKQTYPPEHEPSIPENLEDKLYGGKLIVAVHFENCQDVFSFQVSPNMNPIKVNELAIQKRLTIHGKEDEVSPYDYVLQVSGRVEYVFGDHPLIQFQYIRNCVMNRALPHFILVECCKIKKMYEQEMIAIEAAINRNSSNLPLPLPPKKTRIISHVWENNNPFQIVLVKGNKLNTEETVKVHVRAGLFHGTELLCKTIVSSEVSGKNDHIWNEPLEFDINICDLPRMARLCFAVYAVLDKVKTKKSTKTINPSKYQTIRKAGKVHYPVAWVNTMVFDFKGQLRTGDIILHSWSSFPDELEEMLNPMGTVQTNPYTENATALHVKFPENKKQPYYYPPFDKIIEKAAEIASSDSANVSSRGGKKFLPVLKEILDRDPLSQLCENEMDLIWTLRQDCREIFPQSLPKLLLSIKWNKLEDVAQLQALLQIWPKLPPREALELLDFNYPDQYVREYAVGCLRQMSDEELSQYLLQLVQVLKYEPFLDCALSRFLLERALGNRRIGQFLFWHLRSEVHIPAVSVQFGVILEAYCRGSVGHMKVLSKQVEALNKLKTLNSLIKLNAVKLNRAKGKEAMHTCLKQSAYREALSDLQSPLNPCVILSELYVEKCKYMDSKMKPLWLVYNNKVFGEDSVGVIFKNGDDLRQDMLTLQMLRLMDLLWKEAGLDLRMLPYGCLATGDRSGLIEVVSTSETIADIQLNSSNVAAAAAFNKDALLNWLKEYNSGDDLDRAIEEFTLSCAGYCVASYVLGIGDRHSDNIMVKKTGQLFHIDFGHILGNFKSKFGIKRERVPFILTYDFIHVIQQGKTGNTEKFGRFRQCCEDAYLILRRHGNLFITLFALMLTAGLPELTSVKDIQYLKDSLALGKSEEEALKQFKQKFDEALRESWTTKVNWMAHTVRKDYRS

Structure (SMILES)	IC50 (PIK3CB)	IC50 (PIK3CG (human)) [nM]
COc1c(O)ccc2c1N=C(/C=C(\O)c1cccnc1)N1CCN=C21	500 to 2000 nM	
COC(=O)CCCOc1ccc2c(c1OC)N=C(/C=C(\O)c1cccnc1)N1CCN=C21	500 to 2000 nM	
COc1c(OCCCC(=O)N2CCOCC2)ccc2c1N=C(/C=C(\O)c1cccnc1)N1CCN=C21	100 to 500 nM	≤ 100
CC(=O)Nc1ccc(C(=O)NC2=Nc3cc(N4CCOCC4)ccc3C3=NCCN23)cn1	500 to 2000 nM and 100 to 500 nM	≤ 100
O=C(NC1=Nc2cc(O)ccc2C2=NCCN12)c1cccnc1	500 to 2000 nM	100 to 500
O=C(NC1=Nc2cc(OCCn3cccc3)ccc2C2=NCCN12)c1cccnc1	100 to 500 nM	100 to 500
COc1c(OCCCC(=O)O)ccc2c1N=C(/C=C(\O)c1cccnc1)N1CCN=C21	100 to 500 nM	≤ 100
Nc1ccc(C(=O)NC2=Nc3ccccc3C3=NCCN23)cn1		≤ 100
COc1cccc2c1N=C(NC(=O)c1cccnc1Cl)N1CCN=C21		≤ 100
COc1cc2c(cc1OC)C1=NCCN1C(/C=C(\O)c1cccnc1)=N2	500 to 2000 nM	≤ 100
O/C(=C\C1=Nc2cc(N3CCN(Cc4ccccc4)CC3)ccc2C2=NCCN12)c1cccnc1		100 to 500
COc1cccc2c1N=C(NC(=O)c1cc3cccnc3nc1C(F)(F)F)N1CCN=C21		≤ 100
COc1cc2c(cc1OC)C1=NCCN1C(NC(=O)c1cncc(O)c1)=N2		≤ 100
Cc1cccc2c1N=C(NC(=O)c1cccnc1)N1CCN=C21		100 to 500
COc1cc2c(cc1OC)C1=NCCN1C(/C=C(\O)c1cccs1)=N2		100 to 500
COc1c(OCC(=O)N2CCOCC2)ccc2c1N=C(/C=C(\O)c1cccnc1)N1CCN=C21		≤ 100
COc1cc2c(cc1OC)C1=NCCN1C(NC(=O)c1ccc3[nH]cnc3c1)=N2		≤ 100
O=C(NC1=Nc2ccccc2C2=NCCN12)c1ccsc1		100 to 500
O=C(NC1=Nc2ccccc2C2=NCCN12)c1cccnc1	100 to 500 nM	≤ 100
COc1ccc2c(c1)N=C(NC(=O)c1cccnc1)N1CCN=C21		100 to 500
